The results in this text go back to patent US20260242335A1, “HETEROCYCLOALKYL BETA-HYDROXY ALKYL AMINES FOR USE IN THE TREATMENT OF HYPERGLYCAEMIA AND DISORDERS CHARACTERISED BY HYPERGLYCAEMIA” (ATROGI AB, priority 2023, published 2026).

Experiment [1] concerns L6-myotubes. The experiment can be described thus: Glucose uptake (3H-2-deoxyglucose) in differentiated L6-myotubes, compared to isoproterenol. The class given is cell-based. To be noted: compound at 10 μM vs isoproterenol at 10 μM, read-out: Biological example 1: glucose uptake activity compared to that of isoproterenol. Put shortly:
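Differentiated L6 myotubes, serum-starved overnight in 0.5% fatty-acid-free BSA, were pretreated 1 h 40 min with agonist at 1×10^−5 M final, then re-dosed in glucose-free medium for 20 min. Uptake of 50 nM 3H-2-deoxyglucose over 10 min was read by scintillation counting and compared with isoproterenol.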

The subject of experiment [2] is L6-myotubes. The experiment can be described thus: Measurement of intracellular cAMP levels (alpha screen cAMP kit) in differentiated cells, compared to isoproterenol. It is filed as cell-based. The note with it: 0.25 h, compound at 10 μM vs isoproterenol at 10 μM, 15 min stimulation, read-out: Biological example 2: intracellular cAMP level activity compared to that of isoproterenol. In short, it runs like this:
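Rat L6 myoblasts differentiated to myotubes over 7 days in 2% FBS, serum-starved overnight, then stimulated 15 min with agonist at 1×10^−5 M final in HBSS with 1 mM IBMX, pH 7.4. cAMP measured by AlphaScreen after ethanol extraction and lysis; activity expressed relative to isoproterenol.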

Structures can show the parent of a compound that is named as a salt.

On to `CC(C)(CC1CCN(C(=O)C(F)(F)F)CC1)NC[C@H](O)c1cncc(F)c1` [Example 48, (R)-2,2,2-Trifluoro-1-(4-(2-((2-(5-fluoropyridin-3-yl)-2-hydroxyethyl)-amino)-2-methylpropyl)piperidin-1-yl)ethan-1-one dihydrochloride], for which the Emax at 10 µM with L6-myotubes [1] is 50 to 75%; in the experiment with L6-myotubes [2], below 25%.

Consider `COC(=O)N1CCC(CC(C)(C)NC[C@H](O)c2cncc(F)c2)CC1` [Example 49, Methyl (R)-4-(2-((2-(5-Fluoropyridin-3-yl)-2-hydroxyethyl)amino)-2-methylpropyl)piperidine-1-carboxylate dihydrochloride], for which the figures for the Emax at 10 µM in the experiment on L6-myotubes [1] and in the experiment on L6-myotubes [2] were above 75% and below 25%, respectively.

As to `CN(C)C(=O)N1CCC(CC(C)(C)NC[C@H](O)c2cncc(F)c2)CC1` [Example 50, (R)-4-(2-((2-(5-Fluoropyridin-3-yl)-2-hydroxyethyl)amino)-2-methyl-propyl)-N,N-dimethylpiperidine-1-carboxamide dihydrochloride], the Emax at 10 µM is 50 to 75% in the experiment with L6-myotubes [1] and below 25% in the experiment on L6-myotubes [2].

With `CNC(=O)N1CCC(CC(C)(C)NC[C@H](O)c2cncc(F)c2)CC1` [Example 51, (R)-4-(2-((2-(5-Fluoropyridin-3-yl)-2-hydroxyethyl)amino)-2-methyl-propyl)-N-methylpiperidine-1-carboxamide dihydrochloride], the Emax at 10 µM in the experiment with L6-myotubes [1] is 50 to 75%; in the experiment on L6-myotubes [2] it was below 25%.

Consider `CC(C)(C[C@H]1CCNC(=O)C1)NC[C@H](O)c1cccc(F)c1` [Example 52, (R)-4-(2-(((R)-2-(3-Fluorophenyl)-2-hydroxyethyl)amino)-2-methyl-propyl)piperidin-2-one], for which the Emax at 10 µM in the experiment with L6-myotubes [1] was 50 to 75%; in the experiment on L6-myotubes [2] it was below 25%.

With `CC(C)(C[C@@H]1CCNC(=O)C1)NC[C@H](O)c1cccc(F)c1` [Example 53, (S)-4-(2-(((R)-2-(3-Fluorophenyl)-2-hydroxyethyl)amino)-2-methyl-propyl)piperidin-2-one], the Emax at 10 µM in the experiment on L6-myotubes [1] and in the experiment on L6-myotubes [2] was above 75% throughout.

On to `CC(C)(C[C@H]1CCNC(=O)C1)NC[C@H](O)c1cncc(F)c1` [Example 54, (R)-4-(2-(((R)-2-(5-Fluoropyridin-3-yl)-2-hydroxyethyl)amino)-2-methylpropyl)piperidin-2-one], for which the Emax at 10 µM was 50 to 75% with L6-myotubes [1] and below 25% in the experiment with L6-myotubes [2].

Regarding `CC(C)(C[C@@H]1CCNC(=O)C1)NC[C@H](O)c1cncc(F)c1` [Example 55, (S)-4-(2-(((R)-2-(5-Fluoropyridin-3-yl)-2-hydroxyethyl)amino)-2-methylpropyl)piperidin-2-one], the Emax at 10 µM in the experiment with L6-myotubes [1] is above 75%; with L6-myotubes [2], 50 to 75%.

For the molecule `CC(C)(C[C@H]1CCN(C(=O)OC(C)(C)C)C1)NC[C@H](O)c1cccc(F)c1` [Example 56, tert-Butyl (R)-3-(2-(((R)-2-(3-fluorophenyl)-2-hydroxyethyl)amino)-2-methylpropyl)pyrrolidine-1-carboxylate], the Emax at 10 µM in the experiment on L6-myotubes [1] is 50 to 75%; in the experiment with L6-myotubes [2] it was below 25%.

Consider `CC(C)(C[C@H]1CCNC1)NC[C@H](O)c1cccc(F)c1` [Example 57, (R)-1-(3-Fluorophenyl)-2-((2-methyl-1-((R)-pyrrolidin-3-yl)propan-2-yl)amino)ethan-1-ol], for which the Emax at 10 µM in the experiment on L6-myotubes [1] was above 75%; with L6-myotubes [2], below 25%.

For the molecule `CC(=O)N1CC[C@H](CC(C)(C)NC[C@H](O)c2cccc(F)c2)C1` [Example 58, 1-((R)-3-(2-(((R)-2-(3-Fluorophenyl)-2-hydroxyethyl)amino)-2-methylpropyl)pyrrolidin-1-yl)ethan-1-one], the figures for the Emax at 10 µM in the experiment on L6-myotubes [1] and with L6-myotubes [2] were above 75% and below 25%, respectively.

`CC(C)(C[C@H]1CCN(S(C)(=O)=O)C1)NC[C@H](O)c1cccc(F)c1` [Example 59, (R)-1-(3-Fluorophenyl)-2-((2-methyl-1-((R)-1-(methylsulfonyl)-pyrrolidin-3-yl)propan-2-yl)amino)ethan-1-ol]: the Emax at 10 µM in the experiment with L6-myotubes [1] was above 75%; in the experiment with L6-myotubes [2], below 25%.
